≈ marks a conversion by molar mass, not a printed value.

Format in all cases: cell-based
Test [1] deals with S. aureus cErmA. As to the kind of experiment: MIC (broth microdilution or agar dilution, CLSI). To be noted: Staphylococcus aureus; S. aureus cErmA; read-out: MIC. Here is the method:
(§1) Minimum inhibitory concentrations (MICs) were determined by broth microdilution method or agar dilution method following the Clinical and Laboratory Standards Institute guidelines. Standard bacterial strains were obtained from American Type Culture Collection (ATCC). Other bacterial strains were obtained from hospitals and commercial sources, so noted in Table 11. Before the start of the MIC experiment, standard and test compound stock solutions were prepared in dimethyl sulfoxide (DMSO, Aldrich D2650) at a stock concentration of 5,120 μg/mL. The compound concentration range typically employed for each experiment was 128-0.06 μg/mL (2.5% final DMSO concentration). Clindamycin was used as a comparator in all experiments and each experiment was performed in triplicate. Specialized procedures were employed for streptococcal and anaerobic strains. All other bacterial strains were sub-cultured on blood agar plates (tryptic soy agar with 5% sheep blood, Hardy Diagnostics) and incubated overnight at 35° C. Organisms were suspended in cation-adjusted Mueller-Hinton broth (CaMHB, BD 212322) and optical density was adjusted to 0.5 McFarland standard. Suspensions were further diluted to obtain a final inoculum of 5×10^5 CFU/mL for broth microdilution experiments.

The test system of test [2] is E. faecium Clinical VRE. As to the kind of experiment: MIC (broth microdilution or agar dilution, CLSI). To be noted: Enterococcus faecium; E. faecium Clinical VRE; read-out: MIC. Here is the method:
as §1
For orientation: In broth dilution the organism is exposed to a series of concentrations in liquid medium.

Test [3] relates to S. pneumoniae ATCC 49619. As to the kind of experiment: MIC (broth microdilution or agar dilution, CLSI). To be noted: Streptococcus pneumoniae, ATCC49619, S. pneumoniae ATCC 49619; read-out: MIC. How it is done:
(§2) Minimum inhibitory concentrations (MICs) were determined by broth microdilution method or agar dilution method following the Clinical and Laboratory Standards Institute guidelines. Standard bacterial strains were obtained from American Type Culture Collection (ATCC). Other bacterial strains were obtained from hospitals and commercial sources, so noted in Table 11. […] Specialized procedures were employed for streptococcal and anaerobic strains. All other bacterial strains were sub-cultured on blood agar plates (tryptic soy agar with 5% sheep blood, Hardy Diagnostics) and incubated overnight at 35° C. […] Suspensions were further diluted to obtain a final inoculum of 5×10^5 CFU/mL for broth microdilution experiments.

Test [4] concerns E. coli LptD. Description: MIC (broth microdilution or agar dilution, CLSI). Conditions: Escherichia coli, E. coli LptD; read-out: MIC. How it is done:
as §2

The test system of test [5] is S. pyogenes ATCC 19615. Description: MIC (broth microdilution or agar dilution, CLSI). To be noted: Streptococcus pyogenes, ATCC19615, S. pyogenes ATCC 19615; read-out: MIC. How it is done:
as §2

Test [6] concerns E. coli ATCC 25922. Description: MIC (broth microdilution or agar dilution, CLSI). To be noted: Escherichia coli, ATCC25922; E. coli ATCC 25922; read-out: MIC. Here is the method: as §2
Test [7] deals with K. oxytoca Clinical. Description: MIC (broth microdilution or agar dilution, CLSI). Conditions: Klebsiella oxytoca; K. oxytoca Clinical; read-out: MIC. How it is done:
as §2

The subject of test [8] is E. faecalis ATCC 29212. As to the kind of experiment: MIC (broth microdilution or agar dilution, CLSI). To be noted: Enterococcus faecalis, ATCC29212, E. faecalis ATCC 29212; read-out: MIC. Here is the method: as §2
The test system of test [9] is S. aureus ATCC 29213. As to the kind of experiment: MIC (broth microdilution or agar dilution, CLSI). Conditions: Staphylococcus aureus, ATCC29213, S. aureus ATCC 29213; read-out: MIC. Here is the method:
as §2

Test [10] concerns E. coli ΔTolC. Description: microbe, parasite or virus in culture. To be noted: Escherichia coli, E. coli ΔTolC. How it is done:
as §2

As to `CS[C@H]1O[C@H]([C@H](NC(=O)[C@H]2NC[C@@H]3C[C@H](CC(C)C)CCO[C@H]32)[C@H](C)Sc2ccc(CN3CCNCC3)cc2)[C@H](O)[C@H](O)[C@H]1O` [FSA-09-05-076, (4S,5aS,8S,8aR)-4-Isobutyl-N-((1S,2S)-2-((4-(piperazin-1-ylmethyl)phenyl)thio)-1-((2R,3R,4S,5R,6R)-3,4,5-trihydroxy-6-(methylthio)tetrahydro-2H-pyran-2-yl)propyl)octahydro-2H-oxepino[2,3-c]pyrrole-8-carboxamide], the MIC in test [1] was found to be 128 µg/mL (≈ 192 µM); in test [2], 16 µg/mL (≈ 24 µM); in test [3], 1 µg/mL (≈ 1.5 µM); in test [4], 16 µg/mL (≈ 24 µM); in [5], 0.25 µg/mL (≈ 0.375 µM); in [6], 128 µg/mL (≈ 192 µM). The MIC is 16 µg/mL (≈ 24 µM) in test [7], 4 µg/mL (≈ 6 µM) in test [8], 8 µg/mL (≈ 12 µM) in [9] and 8 µg/mL (≈ 12 µM) in test [10].
On to `CS[C@H]1O[C@H]([C@H](NC(=O)[C@H]2NC[C@@H]3C[C@H](CC(C)C)CCO[C@H]32)[C@H](C)Sc2ccc(CN3CCCCC3)cc2)[C@H](O)[C@H](O)[C@H]1O` [FSA-09-05-077, (4S,5aS,8S,8aR)-4-Isobutyl-N-((1S,2S)-2-((4-(piperidin-1-ylmethyl)phenyl)thio)-1-((2R,3R,4S,5R,6R)-3,4,5-trihydroxy-6-(methylthio)tetrahydro-2H-pyran-2-yl)propyl)octahydro-2H-oxepino[2,3-c]pyrrole-8-carboxamide], for which the MIC in test [1] was found to be 4 µg/mL (≈ 6.01 µM); in [2], 1 µg/mL (≈ 1.5 µM); in test [3] it was 0.25 µg/mL (≈ 0.375 µM); in test [4] it was 1 µg/mL (≈ 1.5 µM); in test [5] it was 0.125 µg/mL (≈ 0.188 µM); in [6], 16 µg/mL (≈ 24 µM). The MIC in test [7] is 1 µg/mL (≈ 1.5 µM); in test [8], 1 µg/mL (≈ 1.5 µM); in test [9], 2 µg/mL (≈ 3 µM); in [10] it was 4 µg/mL (≈ 6.01 µM).
In the case of `CS[C@H]1O[C@H]([C@H](NC(=O)[C@H]2NC[C@@H]3C[C@H](CC(C)C)CCO[C@H]32)[C@H](C)Sc2ccc(CN3CCCC3)cc2)[C@H](O)[C@H](O)[C@H]1O` [FSA-09-05-078, (4S,5aS,8S,8aR)-4-Isobutyl-N-((1S,2S)-2-((4-(pyrrolidin-1-ylmethyl)phenyl)thio)-1-((2R,3R,4S,5R,6R)-3,4,5-trihydroxy-6-(methylthio)tetrahydro-2H-pyran-2-yl)propyl)octahydro-2H-oxepino[2,3-c]pyrrole-8-carboxamide], the MIC in test [1] is 4 µg/mL (≈ 6.14 µM); in [2] it was 1 µg/mL (≈ 1.53 µM); in test [3], 0.25 µg/mL (≈ 0.383 µM); in test [4], 2 µg/mL (≈ 3.07 µM); in [5], 0.125 µg/mL (≈ 0.192 µM); in [6] it was 16 µg/mL (≈ 24.5 µM). Also, the MIC amounted to 2 µg/mL (≈ 3.07 µM) in test [7], 1 µg/mL (≈ 1.53 µM) in test [8], 2 µg/mL (≈ 3.07 µM) in test [9] and 4 µg/mL (≈ 6.14 µM) in test [10].
`CNCc1ccc(S[C@@H](C)[C@@H](NC(=O)[C@H]2NC[C@@H]3C[C@H](CC(C)C)CCO[C@H]32)[C@H]2O[C@H](SC)[C@H](O)[C@@H](O)[C@H]2O)cc1` [FSA-09-05-079, (4S,5aS,8S,8aR)-4-Isobutyl-N-((1S,2S)-2-((4-((methylamino)methyl)phenyl)thio)-1-((2R,3R,4S,5R,6R)-3,4,5-trihydroxy-6-(methylthio)tetrahydro-2H-pyran-2-yl)propyl)octahydro-2H-oxepino[2,3-c]pyrrole-8-carboxamide]: the MIC in [1] was determined as 8 µg/mL (≈ 13.1 µM); in [2], 4 µg/mL (≈ 6.54 µM); in [3] it was 0.5 µg/mL (≈ 0.817 µM); in test [4], 1 µg/mL (≈ 1.63 µM); in [5], 0.5 µg/mL (≈ 0.817 µM); in [6], 16 µg/mL (≈ 26.1 µM). Besides, the MIC was found to be 16 µg/mL (≈ 26.1 µM) in [7], 0.5 µg/mL (≈ 0.817 µM) in test [8], 1 µg/mL (≈ 1.63 µM) in test [9] and 1 µg/mL (≈ 1.63 µM) in test [10].
Turning to `CCCC[C@@H]1CCO[C@@H]2[C@H](CN[C@@H]2C(=O)N[C@H]([C@H](C)Cl)[C@H]2OC(SC)[C@H](O)C(O)C2O)C1` (some centres unmarked) [FSA-12-03-029], the MIC was 8 µg/mL (≈ 16.2 µM) in [1]; 8 µg/mL (≈ 16.2 µM) in [2]; 0.06 µg/mL (≈ 0.121 µM) in test [3]; 4 µg/mL (≈ 8.08 µM) in test [4]; 0.06 µg/mL (≈ 0.121 µM) in [5]; 16 µg/mL (≈ 32.3 µM) in test [6]. In addition, the MIC in [7] amounted to 32 µg/mL (≈ 64.6 µM); in test [8] it was 0.25 µg/mL (≈ 0.505 µM); in [9] it was 0.25 µg/mL (≈ 0.505 µM); in [10] it was 4 µg/mL (≈ 8.08 µM).

(Values after US20230203081A1, “LINCOSAMIDE ANTIBIOTICS AND USES THEREOF” (President and Fellows of Harvard College, priority 2020, published 2023).)
